Columns and labels:
[1] = tested on: Cholic acid-loaded rat model; test: Bile acid-decreasing effect in portal vein of rats loaded with cholic acid (Test Example 2); type: in vivo; settings: 0.1 mg/kg oral with cholic acid 200 mg/kg; portal vein blood after 2 hours; HCO-60 0.1%
Procedure: Bile Acid-Decreasing Effect in Portal Vein of Rats Loaded With Cholic Acid
In this test example, the test for confirming the bile acid-decreasing effect in portal vein of cholic acid-loaded rats was carried out according to the method described in Pharmacology and Therapeutics [Jpn Pharmacol. Ther., Vol. 24 Supplement, 1996, 103 (S-577)-110 (S-584)].
That is, 7 to 9 weeks old SD (IGS) rats were starved on the day before the test and thereafter. […] After 2 hours from the administration, a sample of blood was taken from a portal vein and total serum bile acid level was measured to study the effect of the test compound (n=6). Further, as a control group, a group (n=6) loaded with cholic acid (200 mg/kg) only was prepared and the same test procedure was followed. A commercially available kit (trade name: SOTANJUSAN-TEST WAKO-(SOTANJUSAN=total bile acid), manufactured by WAKO PURE CHEMICAL […], LTD.) was used for the measurement of bile acid. Assuming the value of the control group, which is a group in which no test compound was used, as 100%, the rate of decrease (percentage (%) of decrease) of the bile acid level when a fixed amount of the test compound was used was determined.

human IBAT = molecular target: T1, human IBAT (Homo sapiens, UniProt Q12908); test: In vitro assay of temporarily expressed human IBAT transporter using Cos 7 cells (Test Example 8); type: cell-based; settings: Cos 7 cells temporarily expressing human IBAT; [3H] taurocholate 8 μM, 37° C., 60 minutes
T1 construct: expressed in transfected cells; host or cells: Cos 7
T1 sequence (Q12908 1-348): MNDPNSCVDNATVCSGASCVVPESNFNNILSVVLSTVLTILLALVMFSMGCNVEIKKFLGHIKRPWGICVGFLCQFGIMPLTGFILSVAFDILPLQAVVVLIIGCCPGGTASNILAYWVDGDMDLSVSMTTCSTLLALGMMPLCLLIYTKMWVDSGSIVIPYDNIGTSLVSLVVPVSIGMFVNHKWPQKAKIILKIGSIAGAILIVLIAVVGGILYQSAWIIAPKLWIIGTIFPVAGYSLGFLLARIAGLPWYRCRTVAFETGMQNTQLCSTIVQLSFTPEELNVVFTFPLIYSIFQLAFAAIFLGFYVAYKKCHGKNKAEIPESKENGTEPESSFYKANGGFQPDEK
Procedure: In Vitro Assay of Compounds Which Inhibit Temporarily Expressed Human IBAT Transporter or Rat IBAT Transporter Using Cos 7 Cells
In this test example, the in vitro assay of the compounds which inhibit temporarily expressed human IBAT transporter or rat IBAT transporter using Cos cells was carried out according to the method described in Am. J. Physiol., 274, G157-169.
That is, […] Cos 7 were inoculated on a 24-well cell plate. One day later, 0.3 μg per well of cDNA of a human IBAT or a rat IBAT was transfected by using FuGENE6 (manufactured by ROCHE PHARMACEUTICAL CO., LTD.). For the assay, the cells cultured for one day after the transfection were used and the following procedure was followed. The cells were washed once with an assay buffer, Hank's buffer solution containing 25 mM glucose and with 10 mM HEPES (pH 7.4), and then the assay buffer was replaced by an assay buffer to which the test compound was added. After adding [^3H] taurocholate to a final concentration of 8 μM, the cells were incubated at 37° C. for 60 minutes. [^3H] taurocholate was allowed to be incorporated in Cos 7 cells through human IBAT or rat IBAT. The reaction was stopped by washing twice with a buffer prepared by adding 1 mM taurocholate to the assay buffer and lyzing the cells with 0.2M NaOH. Measurement of radioactivity was carried out by introducing the cell lyzate in 4 ml of liquid scintillation cocktail, stirring the mixture well, and then measuring the radioactivity by a scintillation counter.

Caco 2 cells = test: Toxicity with respect to alimentary canal: cytotoxicity to Caco 2, LDH activity (Test Example 12); type: cell-based, human; settings: LDH activity after 2 hours, relative to cytolytic agent = 100%
Procedure: Toxicity With Respect to Alimentary Canal
To evaluate the toxicity of the compounds of the present invention to the alimentary canal, the cytotoxicity to Caco 2, which is a human originated small intestine epithelial cell line, was tested by referring to the method of Bestwick C S et al. [Biochimica et Biophysica Acta 1474: 47-55, 1999].
That is, Caco 2 cells (purchased from ATCC) were inoculated on a 96-well plate such that there were 10,000 cells/well [MEM-E medium, 10% FBS (Fetal Bovine Serum), 1% NEAA (Non Essential Amino Acid) solution, (both manufactured by GIBCO PHARMACEUTICAL COMPANY)]. After culturing for 48 hours, the test compounds were diluted with the culture medium and added to the respective wells. After 2 hours, 50 μl of the culture broth was collected and the LDH activity in the collected culture broth was measured by using an LDH activity measuring kit (CytoTox 96 Non-Radioactive Cytotoxicity Assay, manufactured by PROMEGA CORPORATION). Relative activities were calculated assuming the LDH activity as 100% when the Caco 2 cells were treated with the cytolytic agent and the obtained relative activities were taken as cytotoxicities to Caco 2 cell.

| Compound | IC50 (human IBAT) [nM] | further results |
| --- | --- | --- |
| CCCCC1(CCCC)CS(=O)(=O)c2ccc(N(C)C)cc2C(c2cccc(NC(=S)NCCCC[N+](C)(C)Cc3ccccc3)c2)N1.[Br-] (stereo not shown) [Example 801] |  | Rate of decrease (%) of bile acid [1]: 33% |
| CCCCC1(CCCC)CS(=O)(=O)c2ccc(N(C)C)cc2C(c2cccc(NC(=S)Nc3ccc(C[N+]45CCN(CC4)CC5)cc3)c2)N1.[Br-] (stereo not shown) [Example 3705] | 54 | Toxicity (%) to Caco 2 (Caco 2 cells; 3 μM): <1%; Toxicity (%) to Caco 2 (Caco 2 cells; 10 μM): <1%; Toxicity (%) to Caco 2 (Caco 2 cells; 30 μM): <1% |
| CCCCC1(CCCC)CS(=O)(=O)c2ccc(N(C)C)cc2C(c2cccc(NC(=S)Nc3ccc(C[n+]4ccc(C)cc4)cc3)c2)N1.[Br-] (stereo not shown) [Example 3709] | 49 | Toxicity (%) to Caco 2 (Caco 2 cells; 3 μM): <1%; Toxicity (%) to Caco 2 (Caco 2 cells; 10 μM): <1%; Toxicity (%) to Caco 2 (Caco 2 cells; 30 μM): <1% |
| CCCCc1ccc[n+](Cc2ccc(NC(=S)Nc3cccc(C4NC(CCCC)(CCCC)CS(=O)(=O)c5ccc(N(C)C)cc54)c3)cc2)c1.[Br-] (stereo not shown) [Example 3723] | 25 | Toxicity (%) to Caco 2 (Caco 2 cells; 3 μM): <1%; Toxicity (%) to Caco 2 (Caco 2 cells; 10 μM): <1%; Toxicity (%) to Caco 2 (Caco 2 cells; 30 μM): <1% |
| CCCCC1(CCCC)CS(=O)(=O)c2ccc(N(C)C)cc2C(c2cccc(NC(=S)Nc3cccc(C[N+](C)(CCC)CCC)c3)c2)N1 (stereo not shown) [Example 4243] | 78 |  |
| C=CC[N+](C)(C)Cc1cccc(NC(=S)Nc2cccc(C3NC(CCCC)(CCCC)CS(=O)(=O)c4ccc(N(C)C)cc43)c2)c1 (stereo not shown) [Example 4246] | 72 |  |
| C=CC[N+](CC)(CC)Cc1cccc(NC(=S)Nc2cccc(C3NC(CCCC)(CCCC)CS(=O)(=O)c4ccc(N(C)C)cc43)c2)c1 (stereo not shown) [Example 4247] | 91 |  |
| CCCCC1(CCCC)CS(=O)(=O)c2ccc(N(C)C)cc2C(c2cccc(NC(=S)Nc3cccc(C[N+](C)(C)CCc4ccccc4)c3)c2)N1 (stereo not shown) [Example 4259] | 67 |  |
| CCCCC1(CCCC)CS(=O)(=O)c2ccc(N(C)C)cc2C(c2cccc(NC(=S)Nc3cccc(C[N+](C)(CC)Cc4ccccc4)c3)c2)N1 (stereo not shown) [Example 4260] | 74 |  |
| C=Cc1ccc(C[N+](C)(C)Cc2cccc(NC(=S)Nc3cccc(C4NC(CCCC)(CCCC)CS(=O)(=O)c5ccc(N(C)C)cc54)c3)c2)cc1 (stereo not shown) [Example 4263] | 72 |  |
| CCCCC1(CCCC)CS(=O)(=O)c2ccc(N(C)C)cc2C(c2cccc(NC(=S)Nc3cccc(C[N+](C)(C)Cc4cccc(OC)c4)c3)c2)N1 (stereo not shown) [Example 4371] | 74 |  |
| CCCCC1(CCCC)CS(=O)(=O)c2ccc(N(C)C)cc2C(c2cccc(NC(=S)Nc3cccc(C[N+]4(CC)CCCCC4)c3)c2)N1 (stereo not shown) [Example 4405] | 62 |  |
| C=CC[N+]1(Cc2cccc(NC(=S)Nc3cccc(C4NC(CCCC)(CCCC)CS(=O)(=O)c5ccc(N(C)C)cc54)c3)c2)CCCCC1 (stereo not shown) [Example 4408] | 73 |  |
| CCCCC1(CCCC)CS(=O)(=O)c2ccc(N(C)C)cc2C(c2cccc(NC(=S)Nc3cccc(C[N+]4(C)CCN(C)CC4)c3)c2)N1 (stereo not shown) [Example 4479] | 78 |  |
| CCCCC1(CCCC)CS(=O)(=O)c2ccc(N(C)C)cc2C(c2cccc(NC(=S)Nc3cccc(C[N+]45CCC(c6ccccc6)(CC4)CC5)c3)c2)N1 (stereo not shown) [Example 4513] | 92 |  |
| CCCCC1(CCCC)CS(=O)(=O)c2ccc(N(C)C)cc2C(c2cccc(NC(=S)Nc3cccc(C[N+]45CCN(CC4)CC5)c3)c2)N1 (stereo not shown) [Example 4522] | 97 |  |
| CCCCC1(CCCC)CS(=O)(=O)c2ccc(N(C)C)cc2C(c2cccc(NC(=S)Nc3cccc(C[n+]4ccc(CC)cc4)c3)c2)N1 (stereo not shown) [Example 4527] | 73 |  |
| CCCCC1(CCCC)CS(=O)(=O)c2ccc(N(C)C)cc2C(c2cccc(NC(=S)Nc3cccc(C[n+]4ccc(CCC)cc4)c3)c2)N1 (stereo not shown) [Example 4528] | 91 |  |

| Compound | IC50 (human IBAT) [nM] | further results |
| --- | --- | --- |
| CCCCC1(CCCC)CS(=O)(=O)c2ccc(N(C)C)cc2C(c2cccc(NC(=S)Nc3cccc(C[n+]4ccc(-c5ccccc5)cc4)c3)c2)N1 (stereo not shown) [Example 4534] | 76 |  |
| CCCCC1(CCCC)CS(=O)(=O)c2ccc(N(C)C)cc2C(c2cccc(NC(=S)Nc3cccc(C[n+]4cccc(CC)c4)c3)c2)N1 (stereo not shown) [Example 4539] | 64 |  |
| CCCCC1(CCCC)CS(=O)(=O)c2ccc(N(C)C)cc2C(c2cccc(NC(=S)Nc3cccc(C[n+]4cccc(-c5cccs5)c4)c3)c2)N1 (stereo not shown) [Example 4543] | 82 |  |
| CCCCC1(CCCC)CS(=O)(=O)c2ccc(N(C)C)cc2C(c2cccc(NC(=S)Nc3cccc(C[n+]4cc(C)cc(C)c4)c3)c2)N1 (stereo not shown) [Example 4546] | 87 |  |
| CCCCC1(CCCC)CS(=O)(=O)c2ccc(N(C)C)cc2C(c2cccc(NC(=S)Nc3cccc(C[n+]4cc(C)cc(-c5ccccc5)c4)c3)c2)N1 (stereo not shown) [Example 4547] | 72 |  |
| CCCCC1(CCCC)CS(=O)(=O)c2ccc(N(C)C)cc2C(c2cccc(NC(=S)Nc3cccc(C[n+]4ccc(OC)cc4)c3)c2)N1 (stereo not shown) [Example 4551] | 76 |  |
| CCCCC1(CCCC)CS(=O)(=O)c2ccc(N(C)C)cc2C(c2cccc(NC(=S)Nc3cccc(C[n+]4cccc5ccccc54)c3)c2)N1 (stereo not shown) [Example 4585] | 78 |  |
| CCCCC1(CCCC)CS(=O)(=O)c2ccc(N(C)C)cc2C(c2cccc(NC(=S)Nc3cccc(C[n+]4cccc5cc(C)ccc54)c3)c2)N1 (stereo not shown) [Example 4587] | 60 |  |
| CCCCC1(CCCC)CS(=O)(=O)c2ccc(N(C)C)cc2C(c2cccc(NC(=S)Nc3cccc(C[n+]4cccc5cc(C(C)C)ccc54)c3)c2)N1 (stereo not shown) [Example 4589] | 46 |  |
| CCCCC1(CCCC)CS(=O)(=O)c2ccc(N(C)C)cc2C(c2cccc(NC(=S)Nc3cccc(C[n+]4ccc5ccccc5c4)c3)c2)N1 (stereo not shown) [Example 4600] | 78 |  |
| CCCCC1(CCCC)CS(=O)(=O)c2ccc(N(C)C)cc2C(c2cccc(NC(=S)Nc3cccc(C[N+](C)(C)C(C)c4cccc5ccccc45)c3)c2)N1 (stereo not shown) [Example 4605] | 79 |  |
| CCCCC1(CCCC)CS(=O)(=O)c2ccc(N(C)C)cc2C(c2cccc(NC(=S)Nc3ccc(C[n+]4ccccc4C)cc3)c2)N1 (stereo not shown) [Example 5407] | 52 |  |
| CCCCC1(CCCC)CS(=O)(=O)c2ccc(N(C)C)cc2C(c2cccc(NC(=S)Nc3ccc(C[n+]4c(C)cc(C)cc4C)cc3)c2)N1 (stereo not shown) [Example 5409] | 42 |  |
| CCCCC1(CCCC)CS(=O)(=O)c2ccc(N(C)C)cc2C(c2cccc(NC(=S)Nc3ccc(C[n+]4cccc(F)c4)cc3)c2)N1 (stereo not shown) [Example 5416] | 77 |  |
| CCCCC1(CCCC)CS(=O)(=O)c2ccc(N(C)C)cc2C(c2cccc(NC(=S)Nc3ccc(C[n+]4cc(O)cc(Cl)c4)cc3)c2)N1 (stereo not shown) [Example 5417] | 26 |  |
| CCCCC1(CCCC)CS(=O)(=O)c2ccc(N(C)C)cc2C(c2cccc(NC(=S)Nc3ccc(C[n+]4cccc(Cl)c4)cc3)c2)N1 (stereo not shown) [Example 5418] | 69 |  |
| CCCCCC1(CCCCC)CS(=O)(=O)c2ccc(N(C)C)cc2C(c2cccc(NC(=S)Nc3ccc(C[N+](C)(C)Cc4ccccc4)cc3)c2)N1.[Br-] (stereo not shown) [Example 5480] |  | Toxicity (%) to Caco 2 (Caco 2 cells; 3 μM): <1%; Toxicity (%) to Caco 2 (Caco 2 cells; 10 μM): <1%; Toxicity (%) to Caco 2 (Caco 2 cells; 30 μM): <1% |
